According to patent publication US5939387A, “Method of treating insulin resistance” (Eli Lilly and Company, priority 1996, dated 1999):
*: point of attachment. p‑methylhippuroyl = Cc1ccc(C(=O)NCC(=O)*)cc1

Assays:
[1] = tested on: Male Fischer 344 rats 26 months of age; assay: Aged Rat Study (oral glucose tolerance test); type: in vivo; details: 2 μg/kg sc daily for 6 weeks
Description: Animals: Male Fischer 344 rats 26 months of age were randomly assigned to three treatment groups (8 animals per group). Animals were housed in individual cages in a temperature and humidity-controlled environment and exposed to 12 h light/12 h dark lighting schedule (lights on at 0600 h). Animals were fed ad libitum on a daily basis.
Treatments: Animals received daily injection (sc., 0.5 ml at 0700 h) of vehicle; active compound, 2 μg/kg body weight for six weeks. At the end of the treatment period and one day prior to testing, food was removed and animals were fasted for 16 hours. Glucose tolerance test was initiated at 0700 h in conscious and freely moving rats. Blood was collected by tail clipping method. A control blood sample (0.2 mL) was collected before ingesting glucose (2.5 g/kg body weight). Subsequent blood samples were collected at 30, 60, 90 and 120 min. after glucose ingestion. Blood was collected on ice and glucose concentrations were determined by bichromatic analysis using the IL Monarch Chemistry Systems (Cat. # 35199, Instrumentation Laboratory, Mass.). Plasma was separated and samples were kept frozen (-20° C.) until assay for insulin concentrations using double antibody radioimmuonoassay. […]
Area under the response curve was calculated using the trapezoidal method and data were analyzed by ANOVA with Duncan's multiple range test.

[2] = tested on: Zucker Diabetic Fatty (ZDF/Gmi-fa/fa) male rats; assay: ZDF Male Rat Assay; type: in vivo; details: for Total Body Mass, final weight / Epididymal Fat weight / Lean Mass, final weight: ZDF rats; for Total Body Mass, final weight: mean of 8; for Epididymal Fat weight / Lean Mass, final weight: 6 to 14 weeks of age
Description: A growth hormone releasing agent is continuously administered to Zucker diabetic male rats subcutaneously by use of an "Alzet" mini osmotic pump. The treatment was started at approximately 6 weeks of age and continued for approximately 6-8 weeks. The experiment was designed to allow the study of changes in the typical plasma glucose and insulin level profiles with the progression of the diabetic disease state.
Zucker Diabetic Fatty (ZDF/Gmi™-fa/fa) male rats were obtained from Genetic Models Inc. (Indianapolis, Ind.). The rats were maintained on Purina Formula 5008 rat chow (Purina Mills, Inc., St. Louis, Mo.) and housed in a light controlled room of alternating 12 hour cycles of light and dark. Rats were singly housed and given free access to food and water. At 5 weeks of age, an oral glucose tolerance test (OGTT: 16 hr fast, oral glucose concentration at 2.5 grams/kg body weight; Butler dextrose solution 50%, lot # 3342, Ft. Collins, Colo.; time points at 0, 30, 60, and 120 minutes) was given to each rat and their plasma assayed for glucose and insulin levels. At 6 weeks of age Alzet minipumps, containing a 1.5 inch polyethylene tube extensions (Model 2001, lot # 040401, 1.0 μl/hr, 7 days; Alza Corporation, Palo Alto, Calif.) were implanted subcutaneously. Animals were anesthetized with isoflurane at approximately 2-3% in oxygen. Each rat was shaved and a Povidone Iodine scrub was used at the site of implantation. A small incision was made above and just posterior to the shoulder. A small pocket was made and the pump placed in so the delivery port was away from the incision. The incision was then closed with wound clips and the rat observed and kept warm until awake. At the end of 7 days the pumps were removed from the rat and a new pump implanted subcutaneously as previously described. Pumps contained vehicle (PBS) or a growth hormone releasing agent (8 rats/group).
The GH releasing agent was prepared at concentrations of 625 and 62.5 μg/mL and loaded into Alzet pumps using sterile techniques. Body weight and food consumption were monitored once a week. Rats were bled from the tail for plasma glucose, insulin, and growth hormone levels weekly. One week prior to sacrificing the rats, an I.P. injection of tetracycline was given to each rat and then again the day before sacrificing (20 mg/mL; 0.5 mL/animal) to determine bone growth.
Assays: Plasma glucose concentrations were determined by the glucose hexokinase method (IL Test GLucose, lot # I1040502; Instrumentation Laboratory Company, Lexington, Mass.) with a model 2000 Monarch (Instrumentation Laboratory Company, Lexington, Mass.). Insulin was determined with a Coat-a-Count kit (Diagnostic Products Corporation, Los Angeles, Calif.) using a rat insulin standard (Lilly Research Laboratories, Indianapolis, Ind.). Glucagon was assayed with a double antibody procedure using guinea pig anti-glucagon (Catalog no. 1032; Linco Research, St. Louis, Mo.), goat anti-guinea pig (lot # T67-7GZ-237); Lilly Research Laboratories, Indianapolis, Ind.) and ^125 I-glucagon (DuPont New England Nuclear, Wilmington, Del.). Growth hormone was assayed using rat growth hormone standard (purchased from Parlow, Torrance Calif.; rGH-RP-2, lot AFP-3190B), anti rGH (purchased from Parlow, Torrance Calif.; rGH-s-r, lot AFP411S), ^125 I-rGH (Corning-Hazelton, Vienna, Va.) and protein A IGSL100 (Enzyme Center, Malden, Mass.).

[3] = age 6 weeks, 0.001 μg/min continuous infusion
[4] = age 6 weeks, 0.01 μg/min continuous infusion
[5] = age 7 weeks, 0.001 μg/min continuous infusion
[6] = age 7 weeks, 0.01 μg/min continuous infusion
[7] = age 8 weeks, 0.001 μg/min continuous infusion
[8] = age 8 weeks, 0.01 μg/min continuous infusion
[9] = age 9 weeks, 0.001 μg/min continuous infusion
[10] = age 9 weeks, 0.01 μg/min continuous infusion
[11] = age 10 weeks, 0.001 μg/min continuous infusion
[12] = age 10 weeks, 0.01 μg/min continuous infusion
[13] = age 11 weeks, 0.001 μg/min continuous infusion
[14] = age 11 weeks, 0.01 μg/min continuous infusion
[15] = age 12 weeks, 0.001 μg/min continuous infusion
[16] = age 12 weeks, 0.01 μg/min continuous infusion
[17] = age 13 weeks, 0.001 μg/min continuous infusion
[18] = age 13 weeks, 0.01 μg/min continuous infusion

p-methyl hippuroyl Leu(27) (1-44)OH hGHRH ({p‑methylhippuroyl}-YADAIFTNSYRKVLGQLSARKLLQDILSRQQGESNQERGARARL-OH) [GHRH Analog, functional analog of GHRH disclosed in EP 511 003, agent capable of stimulating growth hormone release]
Plasma Glucose, oral glucose tolerance test ([1]; time 0 min): 104.2 mg/dL | Plasma Insulin, oral glucose tolerance test ([1]; time 0 min): 1.26 ng/mL | Plasma Glucose, oral glucose tolerance test ([1]; time 30 min): 148.4 mg/dL | Plasma Insulin, oral glucose tolerance test ([1]; time 30 min): 1.64 ng/mL | Plasma Glucose, oral glucose tolerance test ([1]; time 60 min): 154.8 mg/dL | Plasma Insulin, oral glucose tolerance test ([1]; time 60 min): 1.92 ng/mL | Plasma Glucose, oral glucose tolerance test ([1]; time 120 min): 148.1 mg/dL | Plasma Insulin, oral glucose tolerance test ([1]; time 120 min): 1.41 ng/mL | AUC, area under the plasma glucose vs. time curve ([1]; trapezoidal method): 16,833.80 mg. min/dL | AUC, area under the plasma insulin vs. time curve ([1]; trapezoidal method): 196.25 ng·min/mL | Total Body Mass, final weight ([2]; 0.001 μg/min continuous sc infusion from 6 to 14 weeks of age): 327.06 g | Epididymal Fat weight ([2]; 0.001 μg/min infusion): 0.25 g | Lean Mass, final weight ([2]; 0.001 μg/min infusion): 327.06 g | Total Body Mass, final weight ([2]; 0.01 μg/min continuous sc infusion from 6 to 14 weeks of age): 388.16 g | Epididymal Fat weight ([2]; 0.01 μg/min infusion): 0.33 g | Lean Mass, final weight ([2]; 0.01 μg/min infusion): 388.16 g | Mean Plasma Glucose [2, 3]: 139.99 mg/dL | Mean Plasma Insulin [2, 3]: 9.81 ng/mL | Mean Plasma Glucose [2, 4]: 139.86 mg/dL | Mean Plasma Insulin [2, 4]: 11.21 ng/mL | Mean Plasma Glucose [2, 5]: 155.34 mg/dL | Mean Plasma Insulin [2, 5]: 23.91 ng/mL | Mean Plasma Glucose [2, 6]: 148.68 mg/dL | Mean Plasma Insulin [2, 6]: 24.76 ng/mL | Mean Plasma Glucose [2, 7]: 183.41 mg/dL | Mean Plasma Insulin [2, 7]: 27.33 ng/mL | Mean Plasma Glucose [2, 8]: 165.01 mg/dL | Mean Plasma Insulin [2, 8]: 26.81 ng/mL | Mean Plasma Glucose [2, 9]: 331.91 mg/dL | Mean Plasma Insulin [2, 9]: 21.11 ng/mL | Mean Plasma Glucose [2, 10]: 215.49 mg/dL | Mean Plasma Insulin [2, 10]: 24.23 ng/mL | Mean Plasma Glucose [2, 11]: 389.18 mg/dL | Mean Plasma Insulin [2, 11]: 20.18 ng/mL | Mean Plasma Glucose [2, 12]: 235.91 mg/dL | Mean Plasma Insulin [2, 12]: 27.85 ng/mL | Mean Plasma Glucose [2, 13]: 392.65 mg/dL | Mean Plasma Insulin [2, 13]: 20.98 ng/mL | Mean Plasma Glucose [2, 14]: 232.89 mg/dL | Mean Plasma Insulin [2, 14]: 30.05 ng/mL | Mean Plasma Glucose [2, 15]: 496.75 mg/dL | Mean Plasma Insulin [2, 15]: 21.48 ng/mL | Mean Plasma Glucose [2, 16]: 317.11 mg/dL | Mean Plasma Insulin [2, 16]: 36.45 ng/mL | Mean Plasma Glucose [2, 17]: 446.03 mg/dL | Mean Plasma Insulin [2, 17]: 16.29 ng/mL | Mean Plasma Glucose [2, 18]: 248.28 mg/dL | Mean Plasma Insulin [2, 18]: 29.92 ng/mL | Mean Plasma Glucose ([2]; age 14 weeks, 0.001 μg/min continuous infusion): 461.40 mg/dL | Mean Plasma Glucose ([2]; age 14 weeks, 0.01 μg/min continuous infusion): 229.36 mg/dL
